This is an account of results in patent US12421269B2, “SGLT2/DPP4 inhibitor and application thereof” (CGeneTech (Suzhou, China) CO., Ltd., priority 2019, dated 2025).

Series [1] has as its target T1, Human-SGLT1 (Homo sapiens, UniProt P13866).
T1 sequence (P13866 1-664): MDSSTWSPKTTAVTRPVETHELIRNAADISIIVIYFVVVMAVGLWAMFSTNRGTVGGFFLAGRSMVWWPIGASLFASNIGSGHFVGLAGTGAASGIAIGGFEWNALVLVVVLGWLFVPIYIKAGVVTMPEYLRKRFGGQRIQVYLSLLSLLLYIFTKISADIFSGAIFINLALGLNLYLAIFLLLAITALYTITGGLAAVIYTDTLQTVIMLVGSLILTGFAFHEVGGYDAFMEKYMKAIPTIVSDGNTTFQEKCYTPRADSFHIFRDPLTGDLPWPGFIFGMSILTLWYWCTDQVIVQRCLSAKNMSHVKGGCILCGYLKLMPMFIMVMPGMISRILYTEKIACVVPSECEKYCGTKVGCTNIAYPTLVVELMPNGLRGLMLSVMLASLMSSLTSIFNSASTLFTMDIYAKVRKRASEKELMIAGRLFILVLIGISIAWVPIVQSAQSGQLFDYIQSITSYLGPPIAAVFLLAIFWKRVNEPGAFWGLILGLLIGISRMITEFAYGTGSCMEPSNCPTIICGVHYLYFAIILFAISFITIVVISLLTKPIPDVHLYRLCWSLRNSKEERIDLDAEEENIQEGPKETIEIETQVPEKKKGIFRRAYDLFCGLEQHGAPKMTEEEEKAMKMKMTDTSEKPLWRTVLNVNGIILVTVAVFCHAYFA
As to the kind of experiment: SGLT1 glucose transport assay ([14C]-labeled glucose uptake). Type of series: cell-based. Particulars: cells stably expressing Human-SGLT1, 37° C., 2 hours. The procedure: To test the effect of compounds on the glucose transport activity of SGLT1 transporters by measuring the amount of [^14C]-labeled glucose entering highly expressed Human-SGLT1 cells.
The cells stably expressing Human-SGLT1 used for the experiments were constructed by WuXi AppTec Shanghai. The SGLT1 cells were plated in Cytostar-T (PerkinElmer) 96-well cell culture plates and cultured overnight at 5% CO2, 37° C.
Experimental buffer: 10 mM 4-hydroxyethylpiperazine ethanesulfonic acid (HEPES), 1.2 mM magnesium chloride (MgCl2), 4.7 mM potassium chloride (KCl), 2.2 mM calcium chloride (CaCl2) and 120 mM sodium chloride (NaCl).
The compounds were diluted with 100% dimethyl sulfoxide (DMSO) at a starting concentration of 1 mM, 8 points of 5-fold serial gradient dilution was made.
3 μM [^14C]-labeled methyl α-D-glucopyranoside (Methyl a-D-glucopyranosid) was prepared with experimental buffer.
Cells were treated with 49 μL of experimental buffer, 1 μL of gradient-diluted compound and 50 μL of 3 μM [^14C]-isotope-labeled glucose solution at 37° C. for 2 hours.
Readings were taken with an isotope detector (Micro beta Reader).
The data were calculated by GraphPad Prism 5.0 software using the formula: log(inhibitor) vs. response—Variable slope to obtain the IC50 values of the tested compounds, and the experimental results are shown in Table 5.

Series [2] has as its system SD Rat. Put plainly: Oral glucose tolerance (OGTT) in rats. Type of series: in vivo. Particulars: male SD rats, single gavage dose, Canagliflozin 3 mg/kg, test compound 10 mg/kg. Here is the method:
The animals will be acclimatized in the animal room for 1 week after arrival at the facility.
The animals are fasted for 16 hours in the metabolic cage and given the drug or solvent (5 mL/kg) according to the table above, followed immediately by 50% glucose solution (2 g/kg, 4 mL/kg).
After 1 hour of glucose administration, the animals resumed feeding, and blood samples were collected at 0 min, 20 min, 40 min, 60 min, 90 min and 120 min for blood glucose measurement; urine at 0 to 24 hours was used for urinary glucose (mg/200 g) and urine volume test, respectively.
All values were expressed as mean values. Statistical analysis was performed using Graphpad Prism 6 single factor analysis of variance Tukey's multiple comparison test. The p-value less than 0.05 was considered statistically significant.

Series [3] can be described thus: In vivo DMPK study in mice. As to conditions: male C57 mice; for Oral DNAUC (AUCPO/Dose): 10 mg/kg oral; for bioavailability / Cmax / clearance / half-life / Vd: mouse, plasma; for bioavailability: 1 mg/kg intravenous and 10 mg/kg oral, read-out: F % (oral bioavailability); for Cmax / clearance / half-life / Vd: single dose, 1 mg/kg intravenous or 10 mg/kg oral; for clearance: read-out: Cl (clearance rate); for half-life: read-out: T1/2 (half-life) (converted); for Vd: read-out: Vdss (volume of distribution). An excerpt:
Experimental purpose: Male C57 mice were used as test animals to determine blood concentrations of compounds and assess pharmacokinetic behavior after a single dose.
Experimental procedure: Six healthy adult male C57 mice were selected, three of them for the intravenous injection group and three of them for the oral group. The compounds to be tested were mixed with an appropriate amount of intravenous injection group solvent (20% polyethylene glycol-400 (PEG400)/10% polyethylene glycol-15 hydroxystearate (solutol)/70% H2O), the mixture was vortexed and sonicated to obtain 1 mg/mL clarified solution, then the clarified solution was filtered through a microporous membrane and prepared for use; solvent for the oral group was 20% polyethylene glycol-400 (PEG400)/10% polyethylene glycol-15 hydroxystearate (solutol)/70% H2O, and the compounds to be tested were mixed with the solvent, then the mixture was vortexed and sonicated to obtain 1 mg/mL clarified solution. After 1 mg/kg intravenous administration or 10 mg/kg oral administration in mice, whole blood was collected for a certain period of time, then the plasma was prepared to obtain, and the drug concentration was analyzed by LC-MS/MS method, then the pharmacokinetic parameters were calculated using Phoenix WinNonlin software (Pharsight, USA).

On to `CS[C@H]1O[C@@H](c2ccc(F)c(Cc3ccc(O[C@@H]4CCN([C@H]5CO[C@H](c6cc(F)ccc6F)[C@@H](N)C5)C4)cc3)c2)[C@H](O)[C@@H](O)[C@@H]1O` [WX001], for which the concentration for half-maximal inhibition (IC50) in series [1] came to 1280 nM. In addition, in series [2] (glucose 2 g/kg), the OGTT blood glucose levels AUC0-2hr was 869 mmol/L/min. Further, in series [2] (urine 0 to 24 hours), the Urinary glucose level stood at 0.7 mg/200 gBW and the Urine volume was 10.6 mL/200 gBW. In addition, in series [3], the “Oral DNAUC (AUCPO/Dose)” value is 194.8 nM · h/mpk, the bioavailability was 21.4%, the highest level (Cmax) was 308 nM and the clearance is 31.4 mL/min/kg. In series [3], the half-life was 7.39 h and the Vd is 12.2 L/kg.

`CS[C@H]1O[C@@H](c2cc(Cc3ccc(O[C@@H]4CCN([C@H]5CO[C@H](c6cc(F)ccc6F)[C@@H](N)C5)C4)cc3)c(F)cc2F)[C@H](O)[C@@H](O)[C@@H]1O` [WX006]: in series [1], the IC50 came to 298 nM. For the same compound, in series [3], the “Oral DNAUC (AUCPO/Dose)” value is listed as 151.3 nM · h/mpk, the bioavailability worked out at 18.7%, the peak concentration (Cmax) came to 250 nM and the clearance was 29.1 mL/min/kg. Also, in series [3], the half-life was 10.5 h and the Vd was determined as 12 L/kg.

The IC50 is the point on the concentration scale where inhibition reaches its midpoint. A higher IC50 goes with weaker potency in that assay. Broadly, the bioavailability is dose-corrected exposure relative to a reference, in per cent. The Cmax is the maximum level reached in the sampled fluid or tissue.
